# Measured values: patent US7666437B2, “Intranasal vaccine for use against disease caused by enterotoxigenic Escherichia coli” (Universidad Nacional Autonoma de Mexico, priority 2005, dated 2010)
# Where “and” joins values, the source holds several entries; their conditions need not be identical. Equal values may be shown once. Ends that are not written are not given here.
# What was measured:
# strain H10407 of ETEC = test system: strain H10407 of ETEC; parameters: species or system enterotoxigenic Escherichia coli; settings: in vivo
# T CD4+ lymphocytes = test system: T CD4+ lymphocytes; parameters: species or system BALB/c mice; settings: mouse, in vivo
# T CD8+ lymphocytes = test system: T CD8+ lymphocytes; parameters: species or system BALB/c mice; settings: mouse, in vivo
# IL-4 = test system: IL-4; parameters: species or system BALB/c mice; settings: mouse, in vivo
# IL-10 = test system: IL-10; parameters: species or system BALB/c mice; settings: mouse, in vivo
# [1] = test system: children's sera after natural infection; format: binding
# Dynamic light scattering = format: physicochemical; settings: 1 mg/ml in 10 mm PBS pH 7.4; physiological conditions of pH and temperature
# Method: Dynamic light scattering: One milliliter of 1 mg/ml CLE diluted in 10 mm PBS, pH 7.4 was used to evaluate the dynamic light scattering at different temperatures of 5, 15, 25, 35 and 37° C. Hydrodynamic diameter of CLE was determined using the Zed ziser nano series (Mc Malvern, USA).
# IFN-gamma = test system: IFN-gamma; parameters: species or system BALB/c mice; settings: mouse, in vivo
Substance,positive coprocultures (excretion of ETEC) (strain H10407 of ETEC),presence of diarrhea after the infection with ETEC (strain H10407 of ETEC),increase of T CD4+ lymphocytes with regard to control group (T CD4+ lymphocytes),response of T CD4+ lymphocytes (T CD4+ lymphocytes),response of T CD8+ lymphocytes (T CD8+ lymphocytes),increase of IL-4 production compared to the control group (IL-4),increase of IL-10 compared to the control group (IL-10),children's sera that recognized the epitope [1],oligomeric structures formed (hydrodynamic diameter) (Dynamic light scattering),increase of T CD4+ lymphocytes relative to the control (T CD4+ lymphocytes),response of INF-gamma (IFN-gamma)
"CLE: 20 amino acid common linear epitope of ETEC CFA/I fimbria, amino acids 33 to 52, with terminal cysteine in position 53 (YSPASKTFESYRVMTQVHTC; not fully specified; also: disulfide at Cys20, partner not given here; listed as Escherichia coli)",100% and 50%,change of consistency of the feces,about 2 fold,slightly higher,slightly higher,about 2.6 times,0.8 times,100%,trimeric structures,,
CTB,100% and 50%,inconsistency of feces up to the third day,,,very similar to the control group,,,,,0.4 times,considerable response
